We go through 14 compounds from patent US12043448B2, “Compositions for containers and other articles and methods of using same” (SWIMC LLC, priority 2012, dated 2024).

The assay has as its system MCF-7, clone WS8, cells. As to the kind of experiment: MCF-7 cell proliferation assay of estrogenic activity. Format: cell-based, human. The conditions noted are these: logarithmic value (base 10) of Relative Proliferative Effect in the MCF-7 assay; table gives 'expected or measured' values. An excerpt:
The MCF-7 assay is a useful test for assessing whether a polyhydric phenol compound is appreciably non-estrogenic. The MCF-7 assay uses MCF-7, clone WS8, cells to measure whether and to what extent a substance induces cell proliferation via estrogen receptor (ER)-mediated pathways. The method is described in “Test Method Nomination: MCF-7 Cell Proliferation Assay of Estrogenic Activity” submitted for validation by CertiChem, Inc. to the National Toxicology Program Interagency Center for the Evaluation of Alternative Toxicological Methods (NICEATM) on Jan. 19, 2006 (available online at http://iccvam.niehs.nih.gov/methods/endocrine/endodocs/SubmDoc.pdf).
A brief summary of the method of the aforementioned MCF-7 assay is provided below. MCF-7, clone WS8, cells are maintained at 37° C. in RMPI (or Roswell Park Memorial Institute medium) containing Phenol Red (e.g., GIBCO Catalog Number 11875119) and supplemented with the indicated additives for routine culture. An aliquot of cells maintained at 37° C. are grown for 2 days in phenol-free media containing 5% charcoal stripped fetal bovine serum in a 25 cm^2 tissue culture flask. Using a robotic dispenser such as an epMotion 5070 unit, MCF-7 cells are then seeded at 400 cells per well in 0.2 ml of hormone-free culture medium in Corning 96-well plates. The cells are adapted for 3 days in the hormone-free culture medium prior to adding the chemical to be assayed for estrogenic activity. The media containing the test chemical is replaced daily for 6 days. At the end of the 7-day exposure to the test chemical, the media is removed, the wells are washed once with 0.2 ml of HBSS (Hanks' Balanced Salt Solution), and then assayed to quantify amounts of DNA per well using a micro-plate modification of the Burton diphenylamine (DPA) assay, which is used to calculate the level of cell proliferation.
RPE is the ratio between the EC50 of the test chemical and the EC50 of the control substance 17-beta estradiol times 100, where EC50 is “effective concentration […]” or half-maximum stimulation concentration for cell proliferation measured as total DNA in the MCF-7 assay.
`CC(C)(C)c1cc(O)c(C(C)(C)C)cc1O` [Structure 12]: the “Log RPE” value is reported as “less than −4”.
The value for `Oc1ccccc1Cc1ccccc1O` [Structure 11] was “less than −4”.
As for `O=S(=O)(c1ccc(O)cc1)c1ccc(O)cc1` [Bisphenol S, reference compound], the figure is −2; as for `CCCC(c1cc(C(C)(C)C)c(O)cc1C)c1cc(C(C)(C)C)c(O)cc1C` [Structure 7], “less than −4”; as for `CC(C)(c1cc(Br)c(O)c(Br)c1)c1cc(Br)c(O)c(Br)c1` [Structure 16], −3.
The value for `CC(c1ccc(O)cc1)(c1ccc(O)cc1)c1ccc(O)cc1` [Structure 3] was −3.
Turning to `Oc1ccc(Cc2ccc(O)cc2)cc1` [Bisphenol F, reference compound], the “Log RPE” value is −2.
The value for `CC(C(=O)O)(c1ccc(O)cc1)c1ccc(O)cc1` [Structure 5] was “less than −4”.
As for `CC(C)(c1ccc(O)cc1)c1ccc(C(C)(C)c2ccc(O)cc2)cc1` [Structure 10], the entry is “less than −4”; as for `CC(c1ccccc1)(c1ccc(O)cc1)c1ccc(O)cc1` [Structure 4], −3; as for `C[C@]12CC[C@@H]3c4ccc(O)cc4CC[C@H]3[C@@H]1CC[C@@H]2O` [17β-estradiol, reference compound], 2.00.
Regarding `O=c1c(-c2ccc(O)cc2)coc2cc(O)cc(O)c12` [Genistein, reference compound], the “Log RPE” value is on record as −2.
For `C/C=C(/C(=C/C)c1ccc(O)cc1)c1ccc(O)cc1` [dienestrol, reference compound], the “Log RPE” value is “about 2”.
The value for `CC/C(=C(/CC)c1ccc(O)cc1)c1ccc(O)cc1` [diethylstilbestrol, reference compound] was “about 2”.
